Experimental data published in the supplement of paper PMC10702517.
± gives the standard deviation.

Experiment: chemical recovery from spiked human plasma; higher = better extraction
Conditions: pooled human plasma; extraction method: SPE only (HLB 96-well), PES comparison experiment

Compound	chemical recovery [%]
CCOC(=O)C(C)(C)Oc1ccc(Cl)cc1 [Clofibrate]	44.4 ± 7.8
CCCN(CCOc1c(Cl)cc(Cl)cc1Cl)C(=O)NC=O	43.4 ± 6.2
CCCC1O[C@@H]2C[C@H]3[C@@H]4CCC5=CC(=O)C=C[C@]5(C)[C@H]4[C@@H](O)C[C@]3(C)[C@]2(C(=O)CO)O1 (stereo not given in full) [Budesonide]	50.5 ± 7
CCNc1ccc2c(C)cc(=O)oc2c1 [7-(Ethylamino)-4-methylcoumarin]	50 ± 6
O=C(/C=C/C=C/c1ccc2c(c1)OCO2)N1CCCCC1 [Piperine]	56.1 ± 7.1
O=C(O)CCC(=O)c1ccc(F)cc1 [4-Fluorobenzoylpropionic acid]	59.7 ± 7.3
Nc1cnn(-c2ccccc2)c(=O)c1Cl [Chloridazon]	54.9 ± 6.3
O=S(=O)(c1ccccc1)c1ccccc1 [Diphenylsulfone]	15.5 ± 1.1
O=P(OC(CCl)CCl)(OC(CCl)CCl)OC(CCl)CCl [TDCPP]	50.5 ± 5.6
CN(Cc1nc2c(N)nc(N)nc2nc1O)c1ccc(C(=O)N[C@@H](CCC(=O)O)C(=O)O)cc1 [7-Hydroxymethotrexate]	37.4 ± 4.5
COCCN(C(=O)CS(=O)(=O)O)c1c(C)cccc1C [Dimethachlor ESA]	50.3 ± 3.3
CCOC1Oc2ccc(OS(C)(=O)=O)cc2C1(C)C (stereo not given) [Ethofumesate]	52.8 ± 9.5
c1ccc2sc(N3CCOCC3)nc2c1 [2(4-morpholinyl)benzothiazole]	40.1 ± 5.6
Clc1ccc2ccccc2c1 [2-Chloronaphthalene]	0.564 ± 0.39
Clc1ccc(Cl)c(-c2cccc(Cl)c2Cl)c1 [PCB44]	18.4 ± 4
Clc1ccc(-c2cc(Cl)c(Cl)cc2Cl)cc1Cl [PCB118]	3.8 ± 7.6
O=S(=O)(O)c1ccccc1 [Benzenesulfonic acid]	8.52 ± 6
Nc1cn[nH]c(=O)c1Cl [Desphenyl chloridazon]	6.79 ± 4.2

Compound	chemical recovery [%]
C#C[C@]1(O)CC[C@H]2[C@@H]3CCC4=CC(=O)CC[C@@H]4[C@H]3CC[C@@]21C [Norethindrone]	54.2 ± 6.8
CC(C)(C)C(=O)C(Oc1ccc(Cl)cc1)n1ccnc1 (stereo not given) [Climbazole]	46.8 ± 4.8
N#Cc1nn(-c2c(Cl)cc(C(F)(F)F)cc2Cl)c(N)c1[S+]([O-])C(F)(F)F (stereo not given) [Fipronil]	64.5 ± 6.8
CCOC(=O)CC(O)(CC(=O)OCC)C(=O)OCC [Triethylcitrate]	43.2 ± 5
CCc1cccc(C)c1N(C(=O)CS(=O)(=O)O)[C@@H](C)C(=O)O [Metolachlor-NOA 413-173]	22.7 ± 9.6
CS(=O)(=O)c1ccc(C(=O)C2C(=O)CCCC2=O)c(Cl)c1 [Sulcotrione]	51.3 ± 2.9
CN(C)CCC=C1c2ccccc2CCc2ccccc21 [Amitriptyline]	44.1 ± 5.6
C=CCC1=C(C)C(OC(=O)C2C(C=C(C)C)C2(C)C)CC1=O (stereo not given) [Allethrin]	34.6 ± 6.6
O=c1c2ccccc2[nH]c2ccccc12 [Acridone]	50.5 ± 5
ClC1=C(Cl)[C@]2(Cl)[C@@H]3[C@@H]4C[C@@H]([C@H]5O[C@@H]45)[C@@H]3[C@@]1(Cl)C2(Cl)Cl [Dieldrin]	8.32 ± 1.5
CCC(=O)O[C@]1(C(=O)SCF)[C@H](C)C[C@H]2[C@@H]3C[C@H](F)C4=CC(=O)C=C[C@]4(C)[C@@]3(F)[C@@H](O)C[C@@]21C [Fluticasone propionate]	41.1 ± 5.8
CCOC(=O)c1ccc(N(C)C)cc1 [Ethyl 4-(dimethylamino)benzoate]	37.5 ± 6.9
Clc1ccc(Cl)c(-c2ccccc2Cl)c1 [PCB18]	10 ± 1.9
C[Si](Cn1cncn1)(c1ccc(F)cc1)c1ccc(F)cc1 [Flusilazole]	48 ± 7.1
CC(C)N(C(=O)COc1nnc(C(F)(F)F)s1)c1ccc(F)cc1 [Flufenacet]	52.3 ± 7.7
C#C[C@]1(OC(C)=O)CC[C@H]2[C@@H]3CCC4=CC(=NO)CC[C@@H]4[C@H]3CC[C@@]21CC (mixture of isomers) [Norgestimate]	24.5 ± 5.8
CN1C(=O)CN=C(c2ccccc2)c2cc(Cl)ccc21 [Diazepam]	45.5 ± 6.9
OC(c1ccc(Cl)cc1)(c1ccc(Cl)cc1)C(Cl)(Cl)Cl [Dicofol]	14.4 ± 2.8

Same assay, conditions: pooled human plasma; extraction method: solvent precipitation (ACN + hexane)

Compound	chemical recovery [%]
COC(=O)[C@H](c1ccccc1Cl)N1CCc2sccc2C1 [Clopidogrel]	78.1 ± 6.1
O=C1Nc2ccc(Cl)cc2C(C#CC2CC2)(C(F)(F)F)O1 (stereo not given) [Efavirenz]	41.4 ± 3.2
Fc1ccc(Oc2ccnc3cc(Cl)cc(Cl)c23)cc1 [Quinoxyfen]	96.2 ± 9.7
Fc1ccc([C@]2(Cn3cncn3)O[C@H]2c2ccccc2Cl)cc1 (racemic) [Epoxiconazole]	73.6 ± 3
OC(Cc1ccccc1Cl)(Cn1cncn1)C1(Cl)CC1 (stereo not given) [Prothioconazole-desthio]	89.2 ± 4
Nc1nc(N)nc(NC2CC2)n1 [Cyromazine]	72.9 ± 2.3
NC(=O)Nc1ccc(Cl)c(Cl)c1 [3,4-Dichlorophenylurea]	71.8 ± 3.8
O=P1(NCCCl)OCCCN1CCCl (stereo not given) [Ifosfamide]	71.7 ± 1.5
Brc1cc(Br)c(Oc2cc(Br)c(Br)cc2Br)c(Br)c1 [BDE154]	28.8 ± 2.3
CC1(C)CCC(Cc2ccc(Cl)cc2)C1(O)Cn1cncn1 (stereo not given) [Metconazole]	74.3 ± 3.4
CCOC(=O)C(C)(C)Oc1ccc(Cl)cc1 [Clofibrate]	23 ± 10
Brc1ccc(Oc2cc(Br)c(Br)cc2Br)c(Br)c1 [BDE99]	4.89 ± 0.2
CCNc1ccc2c(C)cc(=O)oc2c1 [7-(Ethylamino)-4-methylcoumarin]	77.9 ± 3.2
O=C(/C=C/C=C/c1ccc2c(c1)OCO2)N1CCCCC1 [Piperine]	83.6 ± 4
O=C(O)CCC(=O)c1ccc(F)cc1 [4-Fluorobenzoylpropionic acid]	64 ± 7.2
Nc1cnn(-c2ccccc2)c(=O)c1Cl [Chloridazon]	73 ± 2.7

Compound	chemical recovery [%]
O=S(=O)(c1ccccc1)c1ccccc1 [Diphenylsulfone]	16.4 ± 3.6
c1ccc2sc(N3CCOCC3)nc2c1 [2(4-morpholinyl)benzothiazole]	67.9 ± 3.3
CS(=O)(=O)c1ccccc1 [Methylphenylsulfone]	68 ± 24
Clc1ccc(-c2cc(Cl)c(Cl)cc2Cl)cc1Cl [PCB118]	32 ± 1.2
O=S(=O)(O)c1ccccc1 [Benzenesulfonic acid]	80.7 ± 8.4
CC(C)(C)C(=O)C(Oc1ccc(Cl)cc1)n1ccnc1 (stereo not given) [Climbazole]	75.1 ± 3.8
N#Cc1nn(-c2c(Cl)cc(C(F)(F)F)cc2Cl)c(N)c1[S+]([O-])C(F)(F)F (stereo not given) [Fipronil]	40.3 ± 3.4
CS(=O)(=O)c1ccc(C(=O)C2C(=O)CCCC2=O)c(Cl)c1 [Sulcotrione]	72.8 ± 3.6
CN(C)CCC=C1c2ccccc2CCc2ccccc21 [Amitriptyline]	77.5 ± 5.1
O=c1c2ccccc2[nH]c2ccccc12 [Acridone]	71.9 ± 1.1
ClC1=C(Cl)[C@]2(Cl)[C@@H]3[C@@H]4C[C@@H]([C@H]5O[C@@H]45)[C@@H]3[C@@]1(Cl)C2(Cl)Cl [Dieldrin]	22.5 ± 1.4
CCOC(=O)c1ccc(N(C)C)cc1 [Ethyl 4-(dimethylamino)benzoate]	60.4 ± 5.1
C[Si](Cn1cncn1)(c1ccc(F)cc1)c1ccc(F)cc1 [Flusilazole]	70.1 ± 5.4
CC(C)N(C(=O)COc1nnc(C(F)(F)F)s1)c1ccc(F)cc1 [Flufenacet]	62.5 ± 3.1
CN1C(=O)CN=C(c2ccccc2)c2cc(Cl)ccc21 [Diazepam]	85.2 ± 3.9
OC(c1ccc(Cl)cc1)(c1ccc(Cl)cc1)C(Cl)(Cl)Cl [Dicofol]	23.1 ± 0.7

Experiment: chemical recovery into PDMS from spiked human plasma; higher = better extraction
Conditions: pooled human plasma; extraction method: PES with PDMS; equilibration time (d): 1

Compound	chemical recovery into PDMS [%]
COC(=O)[C@H](c1ccccc1Cl)N1CCc2sccc2C1 [Clopidogrel]	26.7 ± 8.6
O=C1Nc2ccc(Cl)cc2C(C#CC2CC2)(C(F)(F)F)O1 (stereo not given) [Efavirenz]	44.7 ± 4.4
Fc1ccc(Oc2ccnc3cc(Cl)cc(Cl)c23)cc1 [Quinoxyfen]	48 ± 4.7
Fc1ccc([C@]2(Cn3cncn3)O[C@H]2c2ccccc2Cl)cc1 (racemic) [Epoxiconazole]	43.7 ± 1.7
OC(Cc1ccccc1Cl)(Cn1cncn1)C1(Cl)CC1 (stereo not given) [Prothioconazole-desthio]	36.2 ± 2.6
NC(=O)Nc1ccc(Cl)c(Cl)c1 [3,4-Dichlorophenylurea]	0.856 ± 1.5
O=P1(NCCCl)OCCCN1CCCl (stereo not given) [Ifosfamide]	3.64 ± 0.32
CC1(C)CCC(Cc2ccc(Cl)cc2)C1(O)Cn1cncn1 (stereo not given) [Metconazole]	39.4 ± 2.5
C[C@]12CCC(=O)C=C1CC[C@@H]1[C@@H]2CC[C@]2(C)C(=O)CC[C@@H]12 [4-Androstene-3,17-dione]	39.8 ± 3
CCOC(=O)C(C)(C)Oc1ccc(Cl)cc1 [Clofibrate]	40.3 ± 0.95
CCCN(CCOc1c(Cl)cc(Cl)cc1Cl)C(=O)NC=O	39.6 ± 3.2
CCCC1O[C@@H]2C[C@H]3[C@@H]4CCC5=CC(=O)C=C[C@]5(C)[C@H]4[C@@H](O)C[C@]3(C)[C@]2(C(=O)CO)O1 (stereo not given in full) [Budesonide]	4.21 ± 7.3
CCNc1ccc2c(C)cc(=O)oc2c1 [7-(Ethylamino)-4-methylcoumarin]	26.7 ± 4.1
O=C(/C=C/C=C/c1ccc2c(c1)OCO2)N1CCCCC1 [Piperine]	34.8 ± 3.2
Nc1cnn(-c2ccccc2)c(=O)c1Cl [Chloridazon]	4.58 ± 0.31
O=S(=O)(c1ccccc1)c1ccccc1 [Diphenylsulfone]	56.9 ± 12

Compound	chemical recovery into PDMS [%]
O=P(OC(CCl)CCl)(OC(CCl)CCl)OC(CCl)CCl [TDCPP]	35.2 ± 3
COCCN(C(=O)CS(=O)(=O)O)c1c(C)cccc1C [Dimethachlor ESA]	0.000876 ± 0.0015
CCOC1Oc2ccc(OS(C)(=O)=O)cc2C1(C)C (stereo not given) [Ethofumesate]	40.5 ± 3.4
c1ccc2sc(N3CCOCC3)nc2c1 [2(4-morpholinyl)benzothiazole]	27.1 ± 0.46
Clc1ccc2ccccc2c1 [2-Chloronaphthalene]	10.2 ± 1.7
CS(=O)(=O)c1ccccc1 [Methylphenylsulfone]	94.1 ± 26
Clc1ccc(Cl)c(-c2cccc(Cl)c2Cl)c1 [PCB44]	83.5 ± 2.1
Clc1ccc(-c2cc(Cl)c(Cl)cc2Cl)cc1Cl [PCB118]	74.9 ± 4.3
O=S(=O)(O)c1ccccc1 [Benzenesulfonic acid]	0.00847 ± 0.015
Nc1cn[nH]c(=O)c1Cl [Desphenyl chloridazon]	0.0144 ± 0.043
CN(C)c1ccc(C(=O)c2ccc(N(C)C)cc2)cc1 [Michler's ketone]	17.2 ± 9.7
C#C[C@]1(O)CC[C@H]2[C@@H]3CCC4=CC(=O)CC[C@@H]4[C@H]3CC[C@@]21C [Norethindrone]	40.1 ± 2.1
c1ccc(Cc2ccccc2)cc1 [Diphenylmethane]	33.8 ± 1.2
CC(C)(C)C(=O)C(Oc1ccc(Cl)cc1)n1ccnc1 (stereo not given) [Climbazole]	41.2 ± 2.2
N#Cc1nn(-c2c(Cl)cc(C(F)(F)F)cc2Cl)c(N)c1[S+]([O-])C(F)(F)F (stereo not given) [Fipronil]	25.5 ± 0.91
CCOC(=O)CC(O)(CC(=O)OCC)C(=O)OCC [Triethylcitrate]	23.6 ± 0.89
